Results taken from US20260193293A1, “PEPTIDES CAPABLE OF INHIBITING PROTEIN-PROTEIN INTERACTIONS AT GABAB1A SUBUNIT AND USES THEREOF” (UNIVERSITY OF COPENHAGEN, priority 2022, published 2026).
Read-outs that look alike come from different tables or passages of the source. Non-standard residues stand in square brackets, D forms with d. Residues, ends and D or L forms follow the SMILES beside them. 2Nal = N[C@@H](Cc1ccc2ccccc2c1)C(=O)O

Legend:
[1] = target: Sushi domains (SD1/2) protein; test: Fluorescence polarization (FP) competition assay with AJAP-1probe, calculated Ki; format: binding
Summary of the method: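 Competition against 25 nM TAMRA-labelled peptide probe binding SD1/2, in PBS pH 7.4 with 1% BSA at rt, read at 530/580 nm. IC50 from sigmoidal dose-response fits, at least triplicate; Ki calculated from IC50 using probe Kd from saturation binding.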

SD1/2 = test: Solution array of crude APPWT variants, six-point FP inhibition curve; format: binding; conditions: crude peptides of the solution array
Experimental: Parallel synthesis in 96 format peptide synthesis was done using Intavis multipep RSi instrument. Fmoc-PAL resins was used (10 mg per well). Fmoc-amino acids (Fmoc-AA) were dissolved in dimethylformamide (DMF) containing 0.3 M OxymaPure. Throughout the synthesis Fmoc-AA were preactivated with diisopropylcarbodiimide (DIC) for 2 min before adding to the resin. Three couplings using 100 μL Fmoc-AA and 10 μL DIC (3 M in DMF) pr well were employed with coupling times of 5, 15 and 60 min. Removal of Fmoc was performed by washing twice with 120 μl per well of 25% piperidine in DMF for 2 and 8 min. Washing steps after deprotection with piperidine and after coupling steps included washing with DMF (150 μL per well) five times. After synthesis the resins were dried with ethanol and trifluoroacetic acid (TFA) was added using 92% TFA containing 4% triisopropylsilane (TIPS), 1% thioanisol, and 3% H2O for 2 hours. This was done by adding 100 μL per well of the TFA cleavage cocktail over a period of 30 min adding up to a total volume of 1 mL to each well. TFA was then reduced in volume to approximately 100-150 μL by N2 flow and peptides were precipitated by the addition 800 μL of diethylether to each well. The peptides were transferred to Waters solvinert plates and washed thoroughly five times with diethylether 500 μL per well. After washing, the peptides were dried and then dissolved in 80% DMSO. Characterization was performed by UPLC-MS on a setup consisting of a Waters Acquity UPLC system connected to an LCT Premier XE mass spectrometer from Micromass using solvent A 0.1% TFA in H2O and solvent B 0.1% TFA in CH3CN.
We synthesized additional positional scanning array (termed solution array) of APPWT using the conventional on-resin SPPS strategy in 96-well plates. This solution array contained 268 peptides (including two wild type peptides). […] Taking advantage of the high purity of this peptide array, we generated six-point FP inhibition curve of each peptide and the obtained dose response curves enabled us to calculate the binding affinity (Ki) of each peptide variant (data not shown).

[2] = In vitro plasma stability; conditions: for half-life / remaining at 48 h, 100 µM: human; for half-life: plasma; for T1/2 / remaining at 48 h, 100 µM: human plasma; for T1/2: 37° C.
Experimental: For time-course assay, 360 μL human plasma was pre-warmed up at 37° C. for 15 min and then spiked with 40 μL of tested peptides (1 mM in 1×PBS). […] Subsequently, 100 μL acetonitrile was added into and then samples were incubated overnight at −20° C. After that, all samples were centrifuged at 13,400 rpm for 10 min and the supernatant was filtered and then analyzed by LC-MS and UPLC (Waters). The area under the curve (AUC) was determined and normalized to the value of the first time point. The half-life (T1/2) was obtained by fitting the data to the one-phase decay equation in GraphPad Prism 9 and expressed as the mean of three individual experiments. For end-point assay, 108 μL human plasma was pre-warmed up at 37° C. for 15 min and then spiked with 12 μL of tested peptides (1 mM in 1×PBS).

[3] = purified peptides, read-out: Ki
[4] = CPP tagged peptides overview, SD1/2 binding affinity, mean ± SEM, n ≥ 3, read-out: Ki
[5] = Table 14, CPPs tagged peptides, read-out: Ki (nM) mean ± SEM

SMILES: CC(=O)N[C@@H](CCC(=O)O)C(=O)N[C@@H](CC(=O)O)C(=O)N[C@@H](CC(=O)O)C(=O)N[C@@H](CO)C(=O)N[C@@H](CC(=O)O)C(=O)N[C@H](C(=O)N[C@@H](Cc1c[nH]c2ccccc12)C(=O)N[C@@H](Cc1c[nH]c2ccccc12)C(=O)N[C@@H](Cc1ccc(O)cc1)C(=O)NCC(=O)N[C@@H](C)C(=O)N[C@@H](CC(=O)O)C(=O)N[C@H](C(=O)N[C@@H](CC(=O)O)C(N)=O)[C@@H](C)O)C(C)C (Ac-EDDSDVWWYGADTD-NH2)
- Ki ([1]; Table 10, deep mutational scanning validation variants of APPWT, read-out: Ki (nM) mean ± SEM): 108 ± 1 nM
- Ki (SD1/2): 167 nM

SMILES: CC(=O)N[C@@H](CCC(=O)O)C(=O)N[C@@H](CC(=O)O)C(=O)N[C@@H](CC(=O)O)C(=O)N[C@@H](CO)C(=O)N[C@@H](Cc1c[nH]c2ccccc12)C(=O)N[C@H](C(=O)N[C@@H](Cc1c[nH]c2ccccc12)C(=O)N[C@@H](Cc1c[nH]c2ccccc12)C(=O)NCC(=O)NCC(=O)N[C@@H](C)C(=O)N[C@@H](CC(=O)O)C(=O)N[C@H](C(=O)N[C@@H](CC(=O)O)C(N)=O)[C@@H](C)O)C(C)C (Ac-EDDSWVWWGGADTD-NH2)
- Ki [1, 3]: 100 nM
- Ki (SD1/2): 78 nM

SMILES: CC(=O)N[C@@H](CCC(=O)O)C(=O)N[C@@H](CC(=O)O)C(=O)N[C@@H](CC(=O)O)C(=O)N[C@@H](CO)C(=O)N[C@@H](CC(=O)O)C(=O)N[C@H](C(=O)N[C@@H](Cc1c[nH]c2ccccc12)C(=O)N[C@@H](Cc1c[nH]c2ccccc12)C(=O)NCC(=O)NCC(=O)N[C@@H](C)C(=O)N[C@@H](CC(=O)O)C(=O)N[C@H](C(=O)N[C@@H](CC(=O)O)C(N)=O)[C@@H](C)O)C(C)C [APPWT] (Ac-EDDSDVWWGGADTD-NH2)
- Ki ([1]; Table 1, affinity maturation, mean ± SEM, n ≥ 3, read-out: Ki): 557 ± 9 nM
- Ki [1, 3]: 557 ± 9 nM
- Ki (SD1/2): 635 nM
- half-life [2]: > 48 h

SMILES: CC[C@H](C)[C@H](NC(=O)[C@H](Cc1ccc2ccccc2c1)NC(=O)[C@H](CC(=O)O)NC(=O)[C@H](CC(=O)O)NC(=O)[C@H](CC(=O)O)NC(=O)[C@H](CCC(=O)O)NC(=O)[C@H](CCCNC(=N)N)NC(=O)[C@H](CCCNC(=N)N)NC(=O)[C@H](CCCNC(=N)N)NC(=O)[C@H](CCCNC(=N)N)NC(C)=O)C(=O)N[C@@H](CC(=O)O)C(=O)N[C@@H](Cc1c[nH]c2ccccc12)C(=O)N[C@@H](Cc1ccc(O)cc1)C(=O)N[C@@H](CC(=O)O)C(=O)N[C@@H](CO)C(=O)N[C@@H](CC(=O)O)C(=O)N[C@@H](CC(=O)O)C(=O)N[C@@H](CC(=O)O)C(N)=O [Peptide R4-20] (Ac-RRRREDDD[2Nal]IDWYDSDDD-NH2)
- fold higher affinity than 4R-16 ([1]; 4R tagged peptides): about 2 fold
- Ki [1, 4]: 12 ± 1 nM
- Ki [1, 5]: 15 ± 1 nM
- T1/2 [2]: >48 h
- half-life [2]: > 48 h

SMILES: CC[C@H](C)[C@H](NC(=O)[C@H](Cc1ccc2ccccc2c1)NC(=O)[C@H](CC(=O)O)NC(=O)[C@H](CC(=O)O)NC(=O)[C@H](CC(=O)O)NC(=O)[C@H](CCC(=O)O)NC(=O)[C@H](CCCNC(=N)N)NC(=O)[C@H](CCCNC(=N)N)NC(=O)[C@H](CCCNC(=N)N)NC(=O)[C@H](CCCNC(=N)N)NC(C)=O)C(=O)N[C@@H](CC(=O)O)C(=O)N[C@@H](Cc1c[nH]c2ccccc12)C(=O)NCC(=O)N1CCC[C@H]1C(=O)N[C@H](C(=O)N[C@@H](CO)C(=O)N[C@@H](CC(=O)O)C(=O)N[C@@H](CC(=O)O)C(=O)N[C@@H](CC(=O)O)C(N)=O)[C@@H](C)O [Peptide R4-21] (Ac-RRRREDDD[2Nal]IDWGPTSDDD-NH2)
- Ki [1, 4]: 13 ± 1 nM
- Ki [1, 5]: 13 ± 1 nM
- T1/2 [2]: >48 h
- half-life [2]: > 48 h

SMILES: CC[C@H](C)[C@H](NC(=O)[C@H](Cc1c[nH]c2ccccc12)NC(=O)[C@H](CC(=O)O)NC(=O)[C@H](CC(=O)O)NC(=O)[C@H](CC(=O)O)NC(=O)[C@H](CCC(=O)O)NC(=O)[C@H](CCCNC(=N)N)NC(=O)[C@H](CCCNC(=N)N)NC(=O)[C@H](CCCNC(=N)N)NC(=O)[C@H](CCCNC(=N)N)NC(=O)[C@H](CCCNC(=N)N)NC(=O)[C@H](CCCNC(=N)N)NC(=O)[C@H](CCCNC(=N)N)NC(=O)[C@H](CCCNC(=N)N)NC(C)=O)C(=O)N[C@@H](CC(=O)O)C(=O)N[C@@H](Cc1c[nH]c2ccccc12)C(=O)N[C@@H](Cc1ccc(O)cc1)C(=O)N[C@@H](CC(=O)O)C(=O)N[C@@H](CO)C(=O)N[C@@H](CC(=O)O)C(=O)N[C@@H](CC(=O)O)C(=O)N[C@@H](CC(=O)O)C(N)=O [Peptide R8-16] (Ac-RRRRRRRREDDDWIDWYDSDDD-NH2)
- Ki [1, 4]: 107 ± 1 nM
- Ki [1, 5]: 107 ± 2 nM
- remaining at 48 h, 100 µM [2]: ~50%
- half-life [2]: > 48 h

SMILES: CC[C@H](C)[C@H](NC(=O)[C@H](Cc1c[nH]c2ccccc12)NC(=O)[C@H](CC(=O)O)NC(=O)[C@H](CC(=O)O)NC(=O)[C@H](CC(=O)O)NC(=O)[C@H](CCC(=O)O)NC(=O)[C@H](CCCNC(=N)N)NC(=O)[C@H](CCCNC(=N)N)NC(=O)[C@H](CCCNC(=N)N)NC(=O)[C@H](CCCNC(=N)N)NC(=O)[C@H](CCCNC(=N)N)NC(=O)[C@H](CCCNC(=N)N)NC(=O)[C@H](CCCNC(=N)N)NC(=O)[C@H](CCCNC(=N)N)NC(C)=O)C(=O)N[C@@H](CC(=O)O)C(=O)N[C@@H](Cc1c[nH]c2ccccc12)C(=O)NCC(=O)N1CCC[C@H]1C(=O)N[C@H](C(=O)N[C@@H](CO)C(=O)N[C@@H](CC(=O)O)C(=O)N[C@@H](CC(=O)O)C(=O)N[C@@H](CC(=O)O)C(N)=O)[C@@H](C)O [Peptide R8-17] (Ac-RRRRRRRREDDDWIDWGPTSDDD-NH2)
- Ki [1, 4]: 58 ± 3 nM
- Ki [1, 5]: 58.1 ± 3 nM
- remaining at 48 h, 100 µM [2]: ~50%
- half-life [2]: > 48 h
